Where two headings read alike, the source gives them in different places.
What was measured:
[1] = system: genotype A, "Long" strain RSV; test: RSV-A assay (CPE protection in Hep-2 cells, ATPlite readout); type: cell-based, Human respiratory syncytial virus (HRSV); conditions: RSV-A Long strain, MOI 0.1, CPE protection, read-out: Human RSV-A (“Long”) EC50
Outline: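 In this cytopathic-effect protection format, infected Hep-2 cultures (MOI 0.1) are exposed to compound for 5 days. Surviving cell ATP is quantified with ATPlite, and EC50 is determined.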

[2] = system: HMPV clinical isolate TN/1501/A1; test: HMPV antiviral assay Method-B (clinical isolate TN/1501/A1 in LLC-MK2 cells, ATP-Lite readout); type: cell-based, Human metapneumovirus (HMPV); conditions: hMPV WT1501 (clinical isolate TN/1501/A1), 6 days
Outline: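 LLC-MK2 cells infected in suspension with TN/1501/A1 at MOI 0.014 in serum-free medium with 2 μg/mL TPCK-trypsin (final), incubated 6 days at 37° C. Compounds tested in duplicate, 10-point 3-fold dilutions from 10 μM. Cell health read by ATP-Lite luminescence, normalised to virus-only and cells-only controls; EC50 by four-parameter logistic fit.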

[3] = human respiratory syncytial virus
[4] = human metapneumovirus, LLC-MK2, 144 h

Structure (SMILES)	EC50 [1, 3] [nM]	EC50 [2, 4] [nM]	EC50 [1] [nM]	EC50 [2] [nM]
COc1cc(C(=O)NC[C@](O)(c2nc(-c3ccc(F)c(Cl)c3F)c3c(c2F)[C@@](C)(C(N)=O)CO3)C2CC2)cc2cn(C(F)F)nc12 [Example 1161]	< 200	< 500		
COc1cc(C(=O)NC[C@](O)(c2nc(-c3cc(Cl)c(F)cc3F)c3c(c2F)[C@@](C)(C(N)=O)CO3)C2CC2)cc2cn(C(F)F)nc12 [Example 1162]	< 200	< 500		
C[C@]1(C(N)=O)COc2c1cc([C@@](O)(CNC(=O)c1cc(Cl)c3nn(C4CC4)cc3c1)C1CC1)nc2-c1c(F)ccc(Cl)c1F [Example 1166]	< 200	< 500		
C[C@]1(C(N)=O)COc2c1cc([C@@](O)(CNC(=O)c1ccc3nn(C4CC4)cc3c1)C1CC1)nc2-c1c(F)ccc(Cl)c1F [Example 1167]	< 200	< 500		
COc1cc(C(=O)NC[C@](O)(c2cc3c(c(-c4ccc(F)cc4)n2)OC[C@]3(C)C(=O)NCC(C)(C)O)C(F)(F)F)cc2cn(C3CC3)nc12 [Example 1170]	< 200	> 500		
C[C@]1(C(N)=O)COc2c1cc([C@@](O)(CNC(=O)c1cc(Cl)c3nn(C4CC4)cc3c1)C1CC1)nc2-c1cc(F)c(Cl)cc1F [Example 1179]	< 200	< 500		
Cc1cnc2c(Cl)cc(C(=O)NC[C@](O)(c3cc4c(c(-c5cc(F)c(Cl)cc5F)n3)OC[C@]4(C)C(N)=O)C3CC3)cc2c1 [Example 1181]	< 200	< 500		
COc1cc(C(=O)NC[C@](O)(c2cc3c(c(-c4cc(F)c(Cl)cc4F)n2)OC[C@]3(C)C(N)=O)C2CC2)cc2cc(Cl)c(C)nc12 [Example 1182]	< 200	< 500		
Cc1cnc2c(OC(F)F)cc(C(=O)NC[C@](O)(c3cc4c(c(-c5cc(F)c(Cl)cc5F)n3)OC[C@]4(C)C(N)=O)C3CC3)cc2c1 [Example 1183]	< 200	< 500		
COc1cc(C(=O)NC[C@](O)(c2cc3c(c(-c4ccc(F)c(Cl)c4F)n2)OC[C@]3(C)C(N)=O)C2CC2)cc2cc(Br)c(Cl)nc12 [Example 1185]	< 200	< 500		
Cc1nc2c(Cl)cc(C(=O)NC[C@](O)(c3cc4c(c(-c5ccc(F)c(F)c5Cl)n3)OC[C@]4(C)C(N)=O)C3CC3)cc2cc1Cl [Example 1186]	< 200	< 500		
Cc1cnc2c(Cl)cc(C(=O)NC[C@](O)(c3cc4c(c(-c5ccc(F)c(F)c5Cl)n3)OC[C@]4(C)C(N)=O)C3CC3)cc2c1 [Example 1187]	< 200	< 500		
COc1cc(C(=O)NC[C@](O)(c2cc3c(c(-c4cc(Cl)ccc4F)n2)OC[C@]3(C)C(N)=O)C2CC2)cc2cn(C(F)F)nc12 [Example 1188]	< 200	< 500		
CNC(=O)[C@@]1(C)COc2c1cc([C@@](O)(CNC(=O)c1cc(OC)c3nn(C4CC4)cc3c1)C(F)(F)F)nc2-c1ccc(F)cc1 [Example 1190]	< 200	< 500		
CNC(=O)[C@@]1(C)COc2c1cc([C@@](O)(CNC(=O)c1cc(OC)c3nn(C(F)F)cc3c1)C(F)(F)F)nc2-c1ccc(F)cc1 [Example 1191]	< 200	< 500		
C[C@]1(C(N)=O)COc2c1cc([C@@](O)(CNC(=O)c1cc(OC3CC3)c3nc(Cl)ccc3c1)C(F)(F)F)nc2-c1ccc(F)cc1 [Example 1192]	< 200	> 500		
C[C@]1(C(N)=O)COc2c1cc([C@@](O)(CNC(=O)c1cc(OC3CC3)c3nc(Cl)ccc3c1)C1CC1)nc2-c1ccc(F)cc1 [Example 1193]	< 200	> 500		
C[C@]1(C(N)=O)COc2c1cc([C@@](O)(CNC(=O)c1cc(OC3CC3)c3nc(Cl)ccc3c1)C1CC1)nc2-c1ccc(F)c(F)c1Cl [Example 1194]	< 200	> 500		
COc1cc(C(=O)NC[C@](O)(c2cc3c(c(-c4ccc(F)c(F)c4Cl)n2)OC[C@]3(C)C(N)=O)C2CC2)cc2cc(C)cnc12 [Example 1195]	< 200	< 500		
COc1cc(C(=O)NC[C@](O)(c2cc3c(c(-c4ccc5c(c4)OC(F)(F)C(F)(F)O5)n2)OC[C@]3(C)C(N)=O)C(F)(F)F)cc2cn(C3CC3)nc12 [Example 1218]	< 200	> 500		
COc1cc(C(=O)NC[C@@](O)(c2cc3c(c(-c4ccc5c(c4)OC(F)(F)C(F)(F)O5)n2)OC[C@]3(C)C(N)=O)C(F)(F)F)cc2cn(C3CC3)nc12 [Example 1219]			< 200	> 500
COc1cc(C(=O)NC[C@@](O)(c2cc3c(c(-c4cc5c(cc4Cl)OC(F)(F)O5)n2)OC[C@]3(C)C(N)=O)C(F)(F)F)cc2cn(C3CC3)nc12 [Example 1226]	< 200	> 500		
COc1cc(C(=O)NC[C@](O)(c2cc3c(c(-c4cc5c(cc4Cl)OC(F)(F)O5)n2)OC[C@]3(C)C(N)=O)C(F)(F)F)cc2cn(C3CC3)nc12 [Example 1227]	< 200	< 500		
COc1cc(C(=O)NC[C@](O)(c2cc3c(c(C4=CCC(F)(F)CC4)n2)OC[C@]3(C)C(N)=O)C(F)(F)F)cc2cn(C3CC3)nc12 [Example 1228]	< 200	> 500		
COc1cc(C(=O)NC[C@@](O)(c2cc3c(c(C4=CCC(F)(F)CC4)n2)OC[C@]3(C)C(N)=O)C(F)(F)F)cc2cn(C3CC3)nc12 [Example 1229]	> 200	> 500		
COc1cc(C(=O)NC[C@](O)(c2cc3c(c(-c4cc5c(cc4Cl)OC(F)(F)O5)n2)OC[C@]3(C)C(N)=O)C2CC2)cc2cn(C3CC3)nc12 [Example 1231]	< 200	< 500		
COc1cc(C(=O)NC[C@@](O)(c2cc3c(c(-c4c(F)cc(F)cc4Cl)n2)OC[C@]3(C)C(N)=O)C(F)(F)F)cc2cn(C3CC3)nc12 [Example 1234]	> 200	> 500		

More lines, now with the values ahead:

EC50 [1, 3] [nM]	EC50 [2, 4] [nM]	EC50 [1] [nM]	EC50 [2] [nM]	Structure (SMILES)
< 200	< 500			COc1cc(C(=O)NC[C@](O)(c2cc3c(c(-c4c(F)cc(Cl)cc4F)n2)OC[C@]3(C)C(N)=O)C2CC2)cc2cc(Cl)c(C)nc12 [Example 1159]
< 200	< 500			COc1cc(C(=O)NC[C@](O)(c2nc(-c3ccc(F)c(Cl)c3F)c3c(c2F)[C@@](C)(C(N)=O)CO3)C2CC2)cc2cn(C3CC3)nc12 [Example 1160]
< 200	< 500			COc1cc(C(=O)NC[C@](O)(c2cc3c(c(-c4c(F)ccc(Cl)c4F)n2)OC[C@]3(C)C(N)=O)C2CC2)cc2cn(C3CC3)nc12 [Example 1163]
< 200	< 500			COc1cc(C(=O)NC[C@](O)(c2cc3c(c(-c4c(F)ccc(Cl)c4F)n2)OC[C@]3(C)C(N)=O)C2CC2)cc2cn(C(F)F)nc12 [Example 1164]
< 200	< 500			COc1cc(C(=O)NC[C@](O)(c2cc3c(c(-c4c(F)ccc(Cl)c4F)n2)OC[C@]3(C)C(N)=O)C2CC2)cc2cn(C3(F)CC3)nc12 [Example 1165]
< 200	< 500			COc1cc(C(=O)NC[C@](O)(c2cc3c(c(-c4c(F)ccc(Cl)c4F)n2)OC[C@]3(C)C(N)=O)C2CC2)cc2cc(Cl)c(C)nc12 [Example 1168]
< 200	< 500			COc1cc(C(=O)NC[C@](O)(c2cc3c(c(-c4c(F)ccc(Cl)c4F)n2)OC[C@]3(C)C(N)=O)C2CC2)cc2cc(Br)c(C)nc12 [Example 1169]
< 200	< 500			COc1cc(C(=O)NC[C@](O)(c2cc3c(c(-c4cc(F)c(Cl)cc4F)n2)OC[C@]3(C)C(N)=O)C2CC2)cc2cn(C3CC3)nc12 [Example 1177]
< 200	< 500			COc1cc(C(=O)NC[C@](O)(c2cc3c(c(-c4cc(F)c(Cl)cc4F)n2)OC[C@]3(C)C(N)=O)C2CC2)cc2cn(C(F)F)nc12 [Example 1178]
< 200	< 500			COc1cc(C(=O)NC[C@](O)(c2cc3c(c(-c4cc(F)c(Cl)cc4F)n2)OC[C@]3(C)C(N)=O)C2CC2)cc2cn(C3(F)CC3)nc12 [Example 1180]
< 200	< 500			COc1cc(C(=O)NC[C@](O)(c2cc3c(c(-c4ccc(F)c(F)c4Cl)n2)OC[C@]3(C)C(N)=O)C2CC2)cc2cc(Br)c(C)nc12 [Example 1184]
< 200	< 500			COc1cc(C(=O)NC[C@](O)(c2cc3c(c(-c4cc(Cl)ccc4F)n2)OC[C@]3(C)C(N)=O)C2CC2)cc2cc(Br)c(C)nc12 [Example 1189]
< 200	> 500			COc1cc(C(=O)NC[C@](O)(c2cc3c(c(-c4ccc(F)c(F)c4Cl)n2)OC[C@]3(C)C(N)=O)C2CC2)cc2ccc(C)nc12 [Example 1196]
< 200			< 500	COc1cc(C(=O)NC[C@](O)(c2cc3c(c(-c4cc(Br)c(F)cc4F)n2)OC[C@]3(C)C(N)=O)C(F)(F)F)cc2cn(C3CC3)nc12 [Example 1223]
> 200	> 500			COc1cc(C(=O)NC[C@@](O)(c2cc3c(c(-c4cc5c(cc4Cl)OC(F)(F)O5)n2)OC[C@]3(C)C(N)=O)C2CC2)cc2cn(C3CC3)nc12 [Example 1230]
> 200	> 500			COc1cc(C(=O)NC[C@@](O)(c2cc3c(c(-c4c(F)cccc4F)n2)OC[C@]3(C)C(N)=O)C(F)(F)F)cc2cn(C3CC3)nc12 [Example 1232]
< 200	> 500			COc1cc(C(=O)NC[C@](O)(c2cc3c(c(-c4c(F)cccc4F)n2)OC[C@]3(C)C(N)=O)C(F)(F)F)cc2cn(C3CC3)nc12 [Example 1233]

Source: US12612412B2, “Antiviral heterocyclic compounds” (Enanta Pharmaceuticals, Inc., priority 2021, dated 2026)
